Results taken from publication PMC7944860 (Antiviral Research, 2021).
“And” between values parts separate entries of the source, which are not always exact repeats. Equal entries are not always repeated. Where two headings read alike, the source gives them in different places.

Columns and labels:
Cytotoxicity assay = details: human, Huh7-hACE2 cells
SARS-CoV2 [1] = test: microbe, parasite or virus in culture; assay type: cell-based; details: for EC50: read-out: EC50 (μM) (mean ± SD)
Cell viability assay = details: human, MRC-5 cells
HCoV-OC43 [2] = test: HCoV-OC43 focus reduction assay on MRC-5 cells; assay type: cell-based; details: for selectivity index: HCoV-OC43, ratio of CC50 and EC50
MRC-5 cells = test: Cell viability assay; details: read-out: CC50 (μM) (mean ± SD), 20 h, MTS
SARS-CoV2 [3] = test: microbe, parasite or virus in culture; assay type: cell-based; details: for EC50: read-out: EC50 (μM) (mean ± SD), virus yield reduction
HCoV-OC43 [4] = test: HCoV-OC43 virus yield reduction assay on MRC-5 cells; assay type: cell-based; details: for EC50: Betacoronavirus 1, OC43, MRC5, 24 h, read-out: EC50 (μM) (mean ± SD), virus yield reduction; for Virus titer reduction Log10 (mean ± SD) at highest tested dose: FFU/mL vs infected untreated control
SARS-CoV2 [5] = details: 2020, cited from earlier work; for increase of remdesivir inhibitory activity (synergy): ref Bafna et al.
Huh7-hACE2 cells = test: Cytotoxicity assay; details: read-out: CC50 (μM) (mean ± SD), 20 h, Alamar Blue
[6] = Severe acute respiratory syndrome coronavirus 2, 20 h
[7] = Betacoronavirus 1, OC43, MRC5, 20 h, read-out: EC50 (μM) (mean ± SD), HCoV-OC43, MRC-5 cells, 20 h, focus reduction
[8] = read-out: EC50 (μM) (mean ± SD), HCoV-OC43, MRC-5 cells, 20 h, focus reduction
[9] = HCoV-OC43, MRC-5 cells, 20 h, focus reduction

| Compound | CC50 at 20 h (Cytotoxicity assay) [µM] | EC50 (SARS-CoV2 [1]; [6]) [µM] | CC50 at 20 h (Cell viability assay) [µM] | EC50 (HCoV-OC43 [2]; [7]) [µM] | also measured |
| --- | --- | --- | --- | --- | --- |
| CC1(C)[C@@H](OC(=O)CCC(=O)O)CC[C@]2(C)[C@H]3C(=O)C=C4[C@@H]5C[C@@](C)(C(=O)O)CC[C@]5(C)CC[C@@]4(C)[C@]3(C)CC[C@@H]12 [Carbenoxolone] | > 100 | 66 ± 11 | 251 ± 17 | 45.7 ± 8 |  |
| Cc1ccc(C(=O)Nc2ccc(CN3CCN(C)CC3)c(C(F)(F)F)c2)cc1C#Cc1cnc2cccnn12 [Ponatinib] | 8.7 ± 3.8 | 1.1 ± 0.2 | 3.1 ± 0.5 | 0.1 ± 0.05 |  |
| Cn1nnc(-c2ccc(-c3ccc(N4C[C@H](COP(=O)(O)O)OC4=O)cc3F)cn2)n1 [Tedizolid, Tedizolid phosphate] |  |  |  |  | CC50 (MRC-5 cells): > 1000 µM; EC50 (HCoV-OC43 [2]; [8]): 94 ± 25 µM |
| CCc1c2c(nc3ccc(OC(=O)N4CCC(N5CCCCC5)CC4)cc13)-c1cc3c(c(=O)n1C2)COC(=O)[C@]3(O)CC [Irinotecan] | > 100 | 85.2 ± 17 | 63.4 ± 11.4 |  | EC50 (μM) (mean ± SD) (HCoV-OC43 [2]; [9]): no antiviral activity |
| O=C1[C@@H]2[C@H]3CC[C@H](C3)[C@@H]2C(=O)N1C[C@@H]1CCCC[C@H]1CN1CCN(c2nsc3ccccc23)CC1 [Lurasidone] | > 1000 | 18 ± 4.6 | > 1000 | 1.1 ± 0.4 | Virus titer reduction Log10 (mean ± SD) at highest tested dose (SARS-CoV2 [3]): 1.3 and 1.3 ± 0.3 (100 μM) Log10; EC50 (SARS-CoV2 [3]; [6]): 6.4 ± 3.9 µM; selectivity index (HCoV-OC43 [2]): higher than 600; EC50 (HCoV-OC43 [4]): 8.3 ± 2 µM; Virus titer reduction Log10 (mean ± SD) at highest tested dose (HCoV-OC43 [4]; HCoV-OC43, 100 μM): 6.3 ± 1.5 (100 μM) Log10 |
| C[C@@H]1C/C=C/C=C/C=C/C=C/[C@H](O[C@@H]2O[C@H](C)[C@@H](O)[C@H](N)[C@@H]2O)C[C@@H]2O[C@](O)(C[C@@H](O)C[C@H]3O[C@@H]3/C=C/C(=O)O1)C[C@H](O)[C@H]2C(=O)O [Natamycin] | 35.9 ± 13.4 | 24.3 ± 4.4 | 47.3 ± 4.4 |  | EC50 (μM) (mean ± SD) (HCoV-OC43 [2]; [9]): no antiviral activity |
| COC(=O)N[C@H](C(=O)N1CCC[C@H]1c1nc(-c2ccc3c(c2)O[C@@H](c2ccccc2)n2c-3cc3cc(-c4c[nH]c([C@@H]5CCCN5C(=O)[C@@H](NC(=O)OC)C(C)C)n4)ccc32)c[nH]1)C(C)C [Elbasvir] | > 1000 | ~23 | > 1000 | ~1.5 | increase of remdesivir's apparent potency in preventing SARS-CoV2 replication (SARS-CoV2 [5]; in combination with grazoprevir (Zepatier), ref Nguyenla et al.): 25 fold; Virus titer reduction Log10 (mean ± SD) at highest tested dose (SARS-CoV2 [3]): 0.6 and 0.6 ± 0.2 (100 μM) Log10; EC50 (SARS-CoV2 [3]; [6]): 14.4 ± 7.9 µM; selectivity index (HCoV-OC43 [2]): higher than 600; EC50 (HCoV-OC43 [4]): 1.3 ± 0.4 µM; Virus titer reduction Log10 (mean ± SD) at highest tested dose (HCoV-OC43 [4]; HCoV-OC43, 100 μM): 1.4 ± 0.2 (100 μM) Log10 |
| COc1cc([C@@H]2c3cc4c(cc3[C@@H](O[C@@H]3O[C@@H]5CO[C@@H](c6cccs6)O[C@H]5[C@H](O)[C@H]3O)[C@H]3COC(=O)[C@H]23)OCO4)cc(OC)c1O [Teniposide] | > 100 | 97 ± 0.7 | 701 ± 281 |  | EC50 (μM) (mean ± SD) (HCoV-OC43 [2]; [9]): no antiviral activity |
| CCN1CCN(C(=O)N[C@@H](C(=O)N[C@@H]2C(=O)N3C(C(=O)O)=C(CSc4nnnn4C)CS[C@H]23)c2ccc(O)cc2)C(=O)C1=O [Cefoperazone] |  |  | > 1000 |  | EC50 (μM) (mean ± SD) (HCoV-OC43 [2]; [9]): no antiviral activity |
| COc1ccc2c(O[C@@H]3C[C@H]4C(=O)N[C@]5(C(=O)NS(=O)(=O)C6CC6)C[C@H]5/C=C\CCCCN(C)C(=O)[C@@H]4C3)cc(-c3nc(C(C)C)cs3)nc2c1C [Simeprevir] | 47.5 ± 41 | ~9.3 | 11.1 ± 2.3 | ~2.1 | increase of remdesivir inhibitory activity (synergy) (SARS-CoV2 [5]): ≤ 10 fold |
| CCc1cc2c(cc1N1CCC(N3CCOCC3)CC1)C(C)(C)c1[nH]c3cc(C#N)ccc3c1C2=O [Alectinib] |  |  | > 1000 | 0.6 ± 0.2 | EC50 (μM) (mean ± SD) (SARS-CoV2 [1]): no activity; EC50 (HCoV-OC43 [4]): 1 ± 0.1 µM; Virus titer reduction Log10 (mean ± SD) at highest tested dose (HCoV-OC43 [4]; HCoV-OC43, 33 μM): 2.9 ± 0.1 (33 μM) Log10 |
| C=C[C@@H]1C[C@]1(NC(=O)[C@@H]1C[C@@H]2CN1C(=O)[C@H](C(C)(C)C)NC(=O)O[C@@H]1C[C@H]1CCCCCc1nc3ccc(OC)cc3nc1O2)C(=O)NS(=O)(=O)C1CC1.O [Grazoprevir] |  |  |  |  | increase of remdesivir inhibitory activity (synergy) (SARS-CoV2 [5]): ≤ 10 fold; Virus titer reduction Log10 (mean ± SD) at highest tested dose (SARS-CoV2 [3]): 3.9 and 3.9 ± 0.07 (100 μM) Log10; EC50 (SARS-CoV2 [3]): 3.3 ± 0.9 µM; CC50 (Huh7-hACE2 cells): 118 ± 6 µM; EC50 (SARS-CoV2 [1]): ~16 µM and 16 µM; CC50 (MRC-5 cells): 70 ± 12.8 µM; EC50 (HCoV-OC43 [2]; [8]): 11 ± 1.1 µM |
| CC1(C)CCC(CN2CCN(c3ccc(C(=O)NS(=O)(=O)c4ccc(NCC5CCOCC5)c([N+](=O)[O-])c4)c(Oc4cnc5[nH]ccc5c4)c3)CC2)=C(c2ccc(Cl)cc2)C1 [Venetoclax] | 22 ± 6.2 | ~6.2 | 10.6 ± 1.5 | 3.5 ± 0.5 |  |
| Cc1ccc(C(=O)Nc2ccc(S(=O)(=O)O)c3cc(S(=O)(=O)O)cc(S(=O)(=O)O)c23)cc1NC(=O)c1cccc(NC(=O)Nc2cccc(C(=O)Nc3cc(C(=O)Nc4ccc(S(=O)(=O)O)c5cc(S(=O)(=O)O)cc(S(=O)(=O)O)c45)ccc3C)c2)c1 [Suramin] | > 100 | 64 ± 6.6 | > 1000 | 19.3 ± 4.3 |  |
